Measurements reported in the supplement of paper PMC10307832.

Assays:
Experiment in all cases: relative viability (nuclei count vs DMSO), 5 days (fraction); higher = more cells survive
[1] = compound: Cc1ccc(C(=O)Nc2cccc(C(F)(F)F)c2)cc1Nc1cncc(C(N)=O)c1 [ALW-II-49-7] + Cc1nc(Nc2ncc(C(=O)Nc3c(C)cccc3Cl)s2)cc(N2CCN(CCO)CC2)n1 [Dasatinib] (partner 0.075 µM)
Outline: (§1)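 Lung cancer cell lines in 1536-well plates got either a single drug or a fixed anchor-drug dose together with five library-drug doses (not always all listed) in √10 steps, by pin tool, on the day after seeding. Nuclei were counted after 5 days, and relative viability is the treated-to-vehicle ratio of nuclei counts. Values are medians of duplicate plates.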

[2] = compound: Cc1nc(Nc2ncc(C(=O)Nc3c(C)cccc3Cl)s2)cc(N2CCN(CCO)CC2)n1 [Dasatinib] + CS(=O)(=O)N1CCN(Cc2cc3nc(-c4cccc5[nH]ncc45)nc(N4CCOCC4)c3s2)CC1 [Pictilisib] (partner 1 µM)
Outline: as §1

[3] = compound: C1CC1C(=O)NC2=NNC3=C2C=CC(=C3)C4=CC(=CC=C4)C(=O)NC5CC5 [XMD13-2] + NC(=O)Nc1cc(-c2cccc(F)c2)sc1C(=O)N[C@H]1CCCNC1 [AZD7762] (partner 0.2 µM)
Outline: as §1

[4] = compound: C1CC1C(=O)NC2=NNC3=C2C=CC(=C3)C4=CC(=CC=C4)C(=O)NC5CC5 [XMD13-2] + O=C(CCCCCCC(=O)Nc1ccccc1)NO [Vorinostat] (partner 1 µM)
Outline: as §1

| Cell Line | relative viability ([1]; first compound 0.08 µM) | relative viability ([1]; first compound 0.253 µM) | relative viability ([1]; first compound 0.8 µM) | relative viability ([1]; first compound 2.53 µM) | relative viability ([1]; first compound 8 µM) | relative viability ([2]; first compound 0.005 µM) | relative viability ([2]; first compound 0.01581 µM) | relative viability ([2]; first compound 0.05 µM) | relative viability ([2]; first compound 0.1581 µM) | relative viability ([2]; first compound 0.5 µM) | relative viability ([3]; first compound 0.05 µM) | relative viability ([3]; first compound 0.1581 µM) | relative viability ([3]; first compound 0.5 µM) | relative viability ([3]; first compound 1.581 µM) | relative viability ([3]; first compound 5 µM) | relative viability ([4]; first compound 0.05 µM) | relative viability ([4]; first compound 0.1581 µM) | relative viability ([4]; first compound 0.5 µM) | relative viability ([4]; first compound 1.581 µM) | relative viability ([4]; first compound 5 µM) |
| --- | --- | --- | --- | --- | --- | --- | --- | --- | --- | --- | --- | --- | --- | --- | --- | --- | --- | --- | --- | --- |
| NCI-H358 | 0.151 | 0.159 | 0.173 | 0.192 | 0.286 | 0.383 | 0.232 | 0.287 | 0.206 | 0.208 | 0.633 | 0.537 | 0.515 | 0.442 | 0.414 | 0.751 | 0.687 | 0.692 | 0.489 | 0.442 |
| NCI-H1355 | 0.615 | 0.731 | 0.622 | 0.573 | 0.658 | 0.452 | 0.233 | 0.397 | 0.297 | 0.282 | 0.854 | 0.881 | 0.787 | 0.636 | 0.793 | 0.704 | 0.601 | 0.694 | 0.624 | 0.638 |
| NCI-H2170 | 0.725 | 0.531 | 0.608 | 0.512 | 0.614 | 0.286 | 0.234 | 0.257 | 0.265 | 0.203 | 0.957 | 1 | 1 | 0.884 | 0.859 | 0.904 | 0.753 | 0.855 | 0.794 | 0.809 |
| NCI-H2347 | 0.264 | 0.302 | 0.301 | 0.34 | 0.356 | 0.419 | 0.328 | 0.316 | 0.493 | 0.347 | 0.971 | 0.759 | 0.888 | 0.735 | 0.822 | 0.565 | 0.619 | 0.765 | 0.562 | 0.661 |
| A-427 | 0.686 | 0.824 | 0.733 | 0.741 | 0.627 | 0.705 | 0.674 | 0.663 | 0.511 | 0.461 | 0.899 | 0.74 | 0.811 |  | 0.588 | 0.927 | 0.852 | 0.862 |  | 0.705 |
| HCC-366 | 0.694 | 0.75 | 0.591 | 0.528 | 0.7 | 0.0952 | 0.074 | 0.0543 | 0.0636 | 0.0661 | 0.325 | 0.388 | 0.308 | 0.427 | 0.355 | 0.439 | 0.291 | 0.386 | 0.379 | 0.399 |
| HCC-78 | 0.475 | 0.466 |  | 0.361 | 0.383 | 0.185 | 0.212 | 0.183 | 0.159 | 0.178 | 0.763 | 0.973 | 0.557 | 0.475 | 0.705 | 0.481 | 0.489 | 0.454 | 0.445 | 0.413 |
| PC-14 | 0.202 | 0.3 | 0.242 | 0.227 | 0.192 | 0.631 | 0.458 | 0.529 | 0.232 | 0.0479 | 0.392 | 0.337 | 0.464 | 0.329 | 0.446 | 0.951 | 0.934 | 0.749 | 0.825 | 0.975 |
| NCI-H2087 | 0.924 | 0.784 | 0.825 | 0.978 | 0.753 | 0.952 | 1.01 | 1.17 | 0.737 | 0.494 | 1.31 | 1.39 | 1.62 | 1.3 | 1.49 | 0.686 | 0.902 | 0.729 | 0.898 | 0.853 |
| HOP-62 | 0.635 | 0.617 | 0.56 | 0.616 | 0.495 | 0.636 | 0.581 | 0.565 | 0.223 | 0.143 | 0.917 | 0.799 | 0.867 | 0.598 | 0.409 | 0.612 | 0.587 | 0.658 | 0.694 | 0.537 |
| EKVX | 0.382 | 0.481 | 0.546 | 0.425 | 0.454 | 0.449 | 0.231 | 0.338 | 0.181 | 0.101 | 0.888 | 0.689 | 0.54 |  | 0.719 | 0.785 | 0.625 | 0.758 | 0.661 | 0.702 |
| EMC-BAC-2 | 0.311 | 0.324 | 0.284 | 0.293 | 0.29 | 0.455 | 0.344 | 0.327 | 0.243 | 0.185 | 1.34 | 1.16 | 1.06 | 0.984 | 0.864 | 0.502 | 0.43 | 0.438 |  | 0.36 |
| HARA | 0.351 | 0.272 | 0.148 | 0.22 | 0.161 | 0.204 | 0.259 | 0.346 | 0.157 | 0.0728 | 0.301 | 0.557 | 0.263 | 0.376 | 0.37 | 0.555 | 0.484 | 0.536 | 0.578 | 0.372 |
| LU99A | 0.62 | 0.486 | 0.576 | 0.498 | 0.75 | 0.332 | 0.347 | 0.293 | 0.25 | 0.194 | 0.378 | 0.501 | 0.442 | 0.327 | 0.312 | 0.536 | 0.43 | 0.522 | 0.561 | 0.468 |
| NCI-H1944 | 0.206 | 0.237 | 0.232 | 0.228 | 0.227 | 0.308 | 0.274 | 0.274 | 0.258 | 0.268 | 0.555 | 0.473 | 0.488 | 0.75 | 0.551 | 0.632 | 0.53 | 0.607 | 0.808 | 0.628 |
| LK-2 |  | 0.271 | 0.252 | 0.31 | 0.336 | 0.653 | 0.36 | 0.317 | 0.2 | 0.21 | 0.626 | 0.499 | 0.476 | 0.431 | 0.689 | 0.439 | 0.201 | 0.212 | 0.198 | 0.137 |
